Assays:
human μ opiate receptor = molecular target: T1, human μ opiate receptor (Homo sapiens, UniProt P35372); test: Affinity for human μ opiate receptor ([3H]-naloxone displacement, SPA); format: binding; details: for inhibition at 1 µM / μ opioid receptor, % inhibition [1 μM]: 1 μM test substance, inhibition of specific [3H]-naloxone binding; for inhibition at 1 µM: read-out: μ opioid receptor, % inhibition [1 μM]; for Ki: Cheng-Prusoff conversion from IC50, read-out: μ opioid receptor, Ki
T1 construct: purchased PerkinElmer Life Sciences, Zaventem, Belgium RB-HOM; host or cells: CHO-K1 cells (membrane preparation)
Procedure: Method for Determining Affinity for Human μ Opiate Receptor
Receptor affinity for the human μ opiate receptor is determined in a homogeneous batch in microtitre plates. To this end, dilution series of the substances to be tested are incubated in a total volume of 250 μl for 90 minutes at room temperature with a receptor membrane preparation (15-40 μg protein/250 μl incubation batch) of CHO-K1 cells which express the human μ-opiate receptor (RB-HOM receptor membrane preparation from PerkinElmer Life Sciences, Zaventem, Belgium) in the presence of 1 nmol/l of the radioactive ligand [^3H]-naloxone (NET719, from PerkinElmer Life Sciences, Zaventem, Belgium) and 1 mg of WGA-SPA beads (wheat germ agglutinin SPA beads from Amersham/Pharmacia, Freiburg, Germany). 50 mmol/l of tris HCl supplemented with 0.06% bovine serum albumin is used as the incubation buffer. Nonspecific binding is determined by additionally adding 100 μmol/l of naloxone. Once the ninety minute incubation time has elapsed, the microtitre plates are centrifuged off for 20 minutes at 1000 g and the radioactivity measured in a β counter (Microbeta-Trilux, from PerkinElmer Wallac, Freiburg, Germany). The percentage displacement of the radioactive ligand from its binding to the human μ opiate receptor is determined at a concentration of the test substances of 1 μmol/l and stated as percentage inhibition of specific binding. On the basis of the percentage displacement brought about by different concentrations of the test substances, IC50 inhibition concentrations which result in a 50% displacement of the radioactive ligand are calculated. Ki values for the test substances are obtained by conversion using the Cheng-Prusoff equation.

Noradrenalin reuptake = molecular target: T2, Noradrenalin reuptake (Rattus norvegicus, UniProt Q63380); test: Noradrenalin (NA) reuptake inhibition in rat hypothalamus synaptosomes; format: biochemical
T2 construct: these vesicular particles are isolated from the hypothalamus of male rat brains; from tissue; host or cells: hypothalamus of male rat brains, synaptosomes (P2 fraction)
Procedure: (§1) Noradrenalin (NA) and Serotonin (5HT) Reuptake Inhibition
(§2) In order to be able to carry out these in vitro studies, synaptosomes are freshly isolated from rat brain regions. A “P2” fraction is used, which is prepared according to the instructions given by Gray and Whittaker (E. G. Gray and V. P. Whittaker (1962) J. Anat. 76, 79-88). For NA uptake, these vesicular particles are isolated from the hypothalamus of male rat brains.
(§3) A detailed description of the method may be found in the literature (M. Ch. Frink, H.-H. Hennies, W. Engiberger, M. Haurand and B. Wilffert (1996) Arzneim.-Forsch./Drug Res. 46 (III), 11, 1029-1036).

Serotonin reuptake = molecular target: T3, Serotonin reuptake (Rattus norvegicus, UniProt P31652); test: Serotonin (5HT) reuptake inhibition in rat brain synaptosomes; format: biochemical
T3 construct: synaptosomes are freshly isolated from rat brain regions; from tissue; host or cells: rat brain synaptosomes (P2 fraction)
Procedure: as §1, §2, §3

T1 sequence (P35372 whole entry): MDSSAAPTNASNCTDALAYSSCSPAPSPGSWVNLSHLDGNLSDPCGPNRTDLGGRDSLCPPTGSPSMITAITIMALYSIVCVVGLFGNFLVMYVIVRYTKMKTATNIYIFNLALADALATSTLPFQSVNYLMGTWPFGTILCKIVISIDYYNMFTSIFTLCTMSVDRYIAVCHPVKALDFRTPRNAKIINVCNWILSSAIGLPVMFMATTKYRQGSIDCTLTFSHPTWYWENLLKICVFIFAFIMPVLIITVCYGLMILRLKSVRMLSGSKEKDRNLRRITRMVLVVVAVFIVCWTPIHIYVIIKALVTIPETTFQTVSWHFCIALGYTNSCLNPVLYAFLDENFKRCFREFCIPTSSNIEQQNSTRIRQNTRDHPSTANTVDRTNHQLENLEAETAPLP
T3 sequence (P31652 whole entry): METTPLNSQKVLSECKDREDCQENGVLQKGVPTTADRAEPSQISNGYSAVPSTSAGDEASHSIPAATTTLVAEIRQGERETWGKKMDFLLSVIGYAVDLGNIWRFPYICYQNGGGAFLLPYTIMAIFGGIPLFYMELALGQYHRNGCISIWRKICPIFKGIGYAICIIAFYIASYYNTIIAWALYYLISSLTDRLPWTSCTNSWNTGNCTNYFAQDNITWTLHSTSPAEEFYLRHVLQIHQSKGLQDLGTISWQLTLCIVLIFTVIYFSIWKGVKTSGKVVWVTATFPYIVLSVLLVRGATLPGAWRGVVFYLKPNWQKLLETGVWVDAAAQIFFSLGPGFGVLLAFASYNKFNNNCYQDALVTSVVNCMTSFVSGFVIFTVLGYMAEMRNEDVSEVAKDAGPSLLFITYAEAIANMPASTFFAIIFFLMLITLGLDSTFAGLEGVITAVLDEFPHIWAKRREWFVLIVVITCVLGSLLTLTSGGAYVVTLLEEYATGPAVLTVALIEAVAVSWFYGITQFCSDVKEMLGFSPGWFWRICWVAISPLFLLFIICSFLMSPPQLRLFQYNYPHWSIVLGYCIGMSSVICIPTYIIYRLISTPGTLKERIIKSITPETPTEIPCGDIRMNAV
T2 sequence (Q63380 1-617): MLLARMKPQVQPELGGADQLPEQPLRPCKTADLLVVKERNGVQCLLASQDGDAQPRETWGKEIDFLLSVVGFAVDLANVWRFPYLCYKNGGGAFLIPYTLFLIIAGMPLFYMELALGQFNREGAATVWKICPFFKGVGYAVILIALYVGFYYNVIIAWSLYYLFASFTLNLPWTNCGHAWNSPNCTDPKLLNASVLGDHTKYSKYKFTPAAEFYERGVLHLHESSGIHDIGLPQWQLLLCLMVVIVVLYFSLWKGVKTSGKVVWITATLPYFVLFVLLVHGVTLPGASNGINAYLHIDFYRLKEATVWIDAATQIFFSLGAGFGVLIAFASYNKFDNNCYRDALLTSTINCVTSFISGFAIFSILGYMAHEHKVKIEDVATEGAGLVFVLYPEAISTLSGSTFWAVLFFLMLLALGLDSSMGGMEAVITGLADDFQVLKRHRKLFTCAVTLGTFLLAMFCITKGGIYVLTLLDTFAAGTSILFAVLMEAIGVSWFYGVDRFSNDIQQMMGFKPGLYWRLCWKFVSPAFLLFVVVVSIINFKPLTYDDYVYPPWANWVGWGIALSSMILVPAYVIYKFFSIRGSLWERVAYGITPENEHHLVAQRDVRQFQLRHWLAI

Row | Structure (SMILES) | inhibition at 1 µM (human μ opiate receptor) [%] | other results
1 | CN(C)C(c1ccccc1)C1CCC(Cc2nc(-c3cccc(Cl)c3)no2)CC1 (stereo not drawn) [Example 243, ({4-[3-(3-chlorophenyl)-[1,2,4]oxadiazol-5-ylmethyl]-cyclohexyl}-phenylmethyl)-dimethylamine] | 55 | Ki (human μ opiate receptor): 320 nM
2 | COc1ccc(Cc2noc(CC3CCC(C(c4ccccc4)N(C)C)CC3)n2)cc1 (stereo not drawn) [Example 239, ({4-[3-(4-methoxybenzyl)-[1,2,4]oxadiazol-5-ylmethyl]-cyclohexyl}-phenylmethyl)-dimethylamine] | 66 | –
3 | Cc1cccc(-c2noc(C=CC3CCC(C(c4ccccc4)N(C)C)CC3)n2)c1 (stereo not drawn) [Example 183, dimethyl-(phenyl-{4-[2-(3-m-tolyl-[1,2,4]oxadiazol-5-yl)-vinyl]-cyclohexyl}-methyl)-amine] | 40 | –
4 | CN(C)C(c1cccs1)C1CCC(C=Cc2nc(Cc3ccc(Cl)cc3)no2)CC1 (stereo not drawn) [Example 155, [(4-{2-[3-(4-chlorobenzyl)-[1,2,4]oxadiazol-5-yl]-vinyl}-cyclohexyl)-thiophen-2-yl-methyl]-dimethylamine] | 52 | –
5 | Cc1cccc(-c2noc(CCC3CCC(C(c4ccccc4)N(C)C)CC3)n2)c1 (stereo not drawn) [Example 296, dimethyl-(phenyl-{4-[2-(3-m-tolyl-[1,2,4]oxadiazol-5-yl)-ethyl]-cyclohexyl}-methyl)-amine] | 45 | –
6 | CN(C)C(c1ccccc1)C1CCC(CCc2nc(Cc3ccc(Cl)cc3)no2)CC1 (stereo not drawn) [Example 273, [(4-{2-[3-(4-chlorobenzyl)-[1,2,4]oxadiazol-5-yl]-ethyl}-cyclohexyl)-phenylmethyl]-dimethylamine] | 68 | –
7 | Cc1ccc(-c2noc(C=CC3CCC(C(c4cccs4)N(C)C)CC3)n2)n1C (stereo not drawn) [Example 224, [(4-{2-[3-(1,5-dimethyl-1H-pyrrol-2-yl)-[1,2,4]oxadiazol-5-yl]-vinyl}-cyclohexyl)-thiophen-2-yl-methyl]-dimethylamine] | 54 | –
8 | COc1ccc(Cc2noc(C=C3CCC(C(c4ccccc4)N(C)C)CC3)n2)cc1 (stereo not drawn) [Example 79, ({4-[3-(4-methoxybenzyl)-[1,2,4]oxadiazol-5-ylmethylene]-cyclohexyl}-phenylmethyl)-dimethylamine] | 43 | –
9 | CN(C)C(c1ccccc1)C1CCC(C=Cc2nc(Cc3ccc(Cl)cc3)no2)CC1 (stereo not drawn) [Example 150, [(4-{2-[3-(4-chlorobenzyl)-[1,2,4]oxadiazol-5-yl]-vinyl}-cyclohexyl)-phenylmethyl]-dimethylamine] | – | μ opioid receptor, % inhibition [1 μM] (human μ opiate receptor): 56%
10 | CN(C)C(c1ccccc1)C1CCC(=Cc2nc(-c3ccccc3)no2)CC1 (stereo not drawn) [Example 69, dimethyl-{phenyl-[4-(3-phenyl-[1,2,4]oxadiazol-5-ylmethylene)-cyclohexyl]-methyl}-amine] | 40 | –
11 | Cc1cccc(-c2noc(C=CC3CCC(C(c4cccs4)N(C)C)CC3)n2)c1 (stereo not drawn) [Example 195, dimethyl-(thiophen-2-yl-{4-[2-(3-m-tolyl-[1,2,4]oxadiazol-5-yl)-vinyl]-cyclohexyl}-methyl)-amine] | 48 | –
12 | Cc1cccc(-c2noc(C=C3CCC(C(c4ccccc4)N(C)C)CC3)n2)c1 (stereo not drawn) [Example 135, dimethyl-{phenyl-[4-(3-m-tolyl-[1,2,4]oxadiazol-5-ylmethylene)-cyclohexyl]-methyl}-amine] | 44 | –
13 | CN(C)C(c1cccc(F)c1)C1CCC(Cc2nc(-c3ccccc3)no2)CC1 (stereo not drawn) [Example 232, {(3-fluorophenyl)-[4-(3-phenyl-[1,2,4]oxadiazol-5-ylmethyl)-cyclohexyl]-methyl}-dimethylamine] | 41 | –
14 | CN(C)C(c1ccccc1)C1CCC(C=Cc2nc(Cc3ccc(Cl)cc3)no2)CC1 (stereo not drawn) [Example 149, [(4-{2-[3-(4-chlorobenzyl)-[1,2,4]oxadiazol-5-yl]-vinyl}-cyclohexyl)-phenylmethyl]-dimethylamine] | 42 | –
15 | COc1ccc(Cc2noc(CC3CCC(C(c4ccccc4)N(C)C)CC3)n2)cc1 (stereo not drawn) [Example 44, (4-((3-(4-methoxybenzyl)-1,2,4-oxadiazol-5-yl)methyl)cyclohexyl)-N,N-dimethyl(phenyl)methanamine] | – | inhibition at 10 µM (Noradrenalin reuptake): 100%; μ opioid receptor, % inhibition [1 μM] (human μ opiate receptor): 75%; Ki (human μ opiate receptor): 72 nM; inhibition at 10 µM (Serotonin reuptake): 99%
16 | Cc1cccc(-c2noc(CC3CCC(C(c4ccccc4)N(C)C)CC3)n2)c1 (stereo not drawn) [Example 258, dimethyl-{phenyl-[4-(3-m-tolyl-[1,2,4]oxadiazol-5-ylmethyl)-cyclohexyl]-methyl}-amine] | 53 | –
17 | CN(C)C(c1ccc(F)cc1)C1CCC(=Cc2nc(-c3cccc(Cl)c3Cl)no2)CC1 (stereo not drawn) [Example 55, [{4-[3-(2,3-dichlorophenyl)-[1,2,4]oxadiazol-5-ylmethylene]-cyclohexyl}-(4-fluorophenyl)-methyl]-dimethylamine] | 53 | –
18 | COc1ccc(Cc2noc(CCC3CCC(C(c4ccccc4)N(C)C)CC3)n2)cc1 (stereo not drawn) [Example 269, [(4-{2-[3-(4-methoxybenzyl)-[1,2,4]oxadiazol-5-yl]-ethyl}-cyclohexyl)-phenylmethyl]-dimethylamine] | 43 | –
19 | CN(C)C(c1ccccc1)C1CCC(CCc2nc(-c3cccc(Cl)c3Cl)no2)CC1 (stereo not drawn) [Example 304, [(4-{2-[3-(2,3-dichlorophenyl)-[1,2,4]oxadiazol-5-yl]-ethyl}-cyclohexyl)-phenylmethyl]-dimethylamine] | 51 | –
20 | CN(C)C(c1ccccc1)C1CCC(CCc2nc(-c3ccc(F)cc3F)no2)CC1 (stereo not drawn) [Example 281, [(4-{2-[3-(2,4-difluorophenyl)-[1,2,4]oxadiazol-5-yl]-ethyl}-cyclohexyl)-phenylmethyl]-dimethylamine] | 69 | –
21 | CN(C)C(c1ccccc1)C1CCC(Cc2nc(-c3ccccc3)no2)CC1 (stereo not drawn) [Example 234, dimethyl-{phenyl-[4-(3-phenyl-[1,2,4]oxadiazol-5-ylmethyl)-cyclohexyl]-methyl}-amine] | 64 | –
22 | CN(C)C(c1ccccc1)C1CCC(Cc2nc(Cc3ccc(Cl)cc3)no2)CC1 (stereo not drawn) [Example 43, (4-((3-(4-chlorobenzyl)-1,2,4-oxadiazol-5-yl)methyl)cyclohexyl)-N,N-dimethyl(phenyl)methanamine] | 83 | inhibition at 10 µM (Noradrenalin reuptake): 95%; Ki (human μ opiate receptor): 44 nM; inhibition at 10 µM (Serotonin reuptake): 95%
23 | CN(C)C(c1ccccc1)C1CCC(Cc2nc(-c3cccc(Cl)c3Cl)no2)CC1 (stereo not drawn) [Example 246, ({4-[3-(2,3-dichlorophenyl)-[1,2,4]oxadiazol-5-ylmethyl]-cyclohexyl}-phenylmethyl)-dimethylamine] | 56 | –

— US7589113B2, “Substituted oxadiazole compounds and their use as opioid receptor ligands” (Gruenenthal GmbH, priority 2005, dated 2009)
